Results published in ChEMBL document CHEMBL1641435, “DR396, an apoptotic DNase γ inhibitor, attenuates high mobility group box 1 release from apoptotic cells” (Bioorg Med Chem, 2011).
Activity calls are given as the source filed them. The rule behind the calls is not given here.

Key:
HeLa S3 = test: Inhibition of HMGB1 release in human staurosporine-induced HeLaS3 cells at 100 uM treated 1 hr before staurosporine challenge measured after 24 hrs by Western blotting; format: functional
[1] = target: T1, Deoxyribonuclease gamma (Homo sapiens) (UniProt Q13609); test: (§1) Inhibition of human recombinant DNase gamma expressed in Rosetta DE3 cells assessed as increase in acid soluble DNA after 30 mins; format: cell-based
T1 sequence (whole entry): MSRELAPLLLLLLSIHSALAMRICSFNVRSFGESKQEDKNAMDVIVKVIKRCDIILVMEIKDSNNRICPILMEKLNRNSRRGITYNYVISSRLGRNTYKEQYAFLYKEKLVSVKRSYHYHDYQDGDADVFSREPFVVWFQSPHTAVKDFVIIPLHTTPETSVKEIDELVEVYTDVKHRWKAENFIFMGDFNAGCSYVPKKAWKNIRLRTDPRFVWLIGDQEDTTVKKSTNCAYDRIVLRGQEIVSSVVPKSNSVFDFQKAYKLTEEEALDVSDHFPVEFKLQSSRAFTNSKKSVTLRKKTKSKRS

Deoxyribonuclease gamma [2] = target: T2, Deoxyribonuclease gamma (Homo sapiens, UniProt Q13609); test: as §1; format: cell-based
T2 sequence (Q13609 whole entry): T1 sequence (whole entry)

Deoxyribonuclease gamma [3] = target: T2, Deoxyribonuclease gamma; test: Inhibition of DNase gamma-mediated HMGB1 release expressed in human staurosporine-induced HeLaS3 cells treated 1 hr before staurosporine challenge measured after 24 hrs by Western blotting
[4] = target: T1, Deoxyribonuclease gamma (Homo sapiens); conditions: HeLa S3; 30 uM
Description: Inhibition of DNase gamma-mediated nucleosomal DNA fragmentation expressed in human staurosporine-induced HeLaS3 cells at 30 uM treated 1 hr before staurosporine challenge measured after 24 hrs by Western blotting

| inhibition [1] | IC50 (Deoxyribonuclease gamma [2]) | IC50 (Deoxyribonuclease gamma [3]) | inhibition [4] | SMILES | inhibition at 100 µM (HeLa S3) | inhibition (HeLa S3) |
| --- | --- | --- | --- | --- | --- | --- |
| Dose-dependent effect | 16.1 µM |  |  | O=S(=O)(O)c1cc(O)c2c(O)c(/N=N/c3cccc4ccccc34)c(S(=O)(=O)O)cc2c1 [PONTACYL VIOLET 6R] | 50% |  |
| Dose-dependent effect | 34.5 µM |  |  | O=C(N[C@H](CC1CCCCC1)C(=O)O)OCC1c2ccccc2-c2ccccc21 | 20% |  |
| Dose-dependent effect | 3.2 µM | 30 µM | 50% | O=C(O)c1ccc(Nc2nc(Cl)nc(Cl)n2)cc1-c1c2ccc(=O)cc-2oc2cc(O)ccc12 |  | Active |
